Data taken from patent US12102648B2, “Orally-bioavailable nucleoside analogs” (priority 2021, dated 2024).
Where two headings read alike, the source gives them in different places.

Assay: in vitro
Type: in vitro ADME
Conditions: human
Outline: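 Permeability measured in both directions across 19-day Caco-2 layers with TEER above 600 […], incubated at 37° C without shaking; donor and receiver sampled at 10 and 90 min for LC/MS/MS. Derived values: Papp (cm/s), efflux ratio, recovery.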

[1] = Caco-2 monolayer, apical to basolateral, 90-minute incubation, read-out: Papp, A-B
[2] = Caco-2 monolayer, basolateral to apical, 90-minute incubation, read-out: Papp, B-A
[3] = Caco-2 monolayer, ER>2 indicates potential efflux transporter substrate, read-out: ER (efflux ratio)

| Structure (SMILES) | Papp A→B at 90 min [1] [×10⁻⁶ cm/s] | Papp B→A at 90 min [2] [×10⁻⁶ cm/s] | efflux ratio at 90 min [3] | Papp A→B at 90 min (Caco-2) [×10⁻⁶ cm/s] | Papp B→A at 90 min (Caco-2) [×10⁻⁶ cm/s] | efflux ratio at 90 min (Caco-2) |
| --- | --- | --- | --- | --- | --- | --- |
| CCCCCOC(=O)Nc1ncnn2c([C@]3(C#N)O[C@H](COC(=O)Cc4ccccc4)[C@@H](O)[C@H]3O)ccc12 [Compound 89, ((2R,3S,4R,5R)-5-cyano-3,4-dihydroxy-5-(4-(((pentyloxy)carbonyl)amino)pyrrolo[2,1-f][1,2,4]triazin-7-yl)tetrahydrofuran-2-yl)methyl 2-phenylacetate] | 2.1 | 6.6 | 3.2 |  |  |  |
| CCCCCOC(=O)Nc1ncnn2c([C@]3(C#N)O[C@H](COC(=O)CC)[C@@H](O)[C@H]3O)ccc12 [Compound 91, ((2R,3S,4R,5R)-5-cyano-3,4-dihydroxy-5-(4-(((pentyloxy)carbonyl)amino)pyrrolo[2,1-f][1,2,4]triazin-7-yl)tetrahydrofuran-2-yl)methyl propionate] | 1.9 | 4.1 | 2.1 |  |  |  |
| CCCCCOC(=O)Nc1ncnn2c([C@]3(C#N)O[C@H](COC(=O)C(C)C)[C@@H](O)[C@H]3O)ccc12 [Compound 92, ((2R,3S,4R,5R)-5-cyano-3,4-dihydroxy-5-(4-(((pentyloxy)carbonyl)amino)pyrrolo[2,1-f][1,2,4]triazin-7-yl)tetrahydrofuran-2-yl)methyl isobutyrate] |  |  |  | 2.7 | 4.6 | 1.7 |
| CCCCCOC(=O)Nc1ncnn2c([C@]3(C#N)O[C@H](COC(=O)CC(C)C)[C@@H](O)[C@H]3O)ccc12 [Compound 93, ((2R,3S,4R,5R)-5-cyano-3,4-dihydroxy-5-(4-(((pentyloxy)carbonyl)amino)pyrrolo[2,1-f][1,2,4]triazin-7-yl)tetrahydrofuran-2-yl)methyl 3-methylbutanoate] |  |  |  | 2.8 | 1.5 | 0.54 |
| CC(C)[C@H](N)C(=O)OC[C@H]1O[C@@](C#N)(c2ccc3c(NC(=O)[C@@H](N)Cc4ccc(F)cc4)ncnn23)[C@H](O)[C@@H]1O [Compound 94, ((2R,3S,4R,5R)-5-(4-((S)-2-amino-3-(4-fluorophenyl)propanamido)pyrrolo[2,1-f][1,2,4]triazin-7-yl)-5-cyano-3,4-dihydroxytetrahydrofuran-2-yl)methyl L-valinate] |  |  |  | 0.07 | 0.64 | 9.1 |
| N#C[C@@]1(c2ccc3c(NC(=O)[C@@H](N)Cc4ccc(F)cc4)ncnn23)O[C@H](COC(=O)CC2CCCCC2)[C@@H](O)[C@H]1O [Compound 96, ((2R,3S,4R,5R)-5-(4-((S)-2-amino-3-(4-fluorophenyl)propanamido)pyrrolo[2,1-f][1,2,4]triazin-7-yl)-5-cyano-3,4-dihydroxytetrahydrofuran-2-yl)methyl 2-cyclohexylacetate] |  |  |  | 0.45 | 5.2 | 12 |
| N#C[C@@]1(c2ccc3c(NC(=O)[C@@H](N)Cc4ccc(F)cc4)ncnn23)O[C@H](COC(=O)Cc2ccccc2)[C@@H](O)[C@H]1O [Compound 97, ((2R,3S,4R,5R)-5-(4-((S)-2-amino-3-(4-fluorophenyl)propanamido)pyrrolo[2,1-f][1,2,4]triazin-7-yl)-5-cyano-3,4-dihydroxytetrahydrofuran-2-yl)methyl 2-phenylacetate] | 3.8 | 6.6 | 1.8 |  |  |  |
| CC(C)C(=O)OC[C@H]1O[C@@](C#N)(c2ccc3c(NC(=O)[C@@H](N)Cc4ccc(F)cc4)ncnn23)[C@H](O)[C@@H]1O [Compound 100, ((2R,3S,4R,5R)-5-(4-((S)-2-amino-3-(4-fluorophenyl)propanamido)pyrrolo[2,1-f][1,2,4]triazin-7-yl)-5-cyano-3,4-dihydroxytetrahydrofuran-2-yl)methyl isobutyrate] |  |  |  | 0.03 | 2.7 | 92 |
| CC(C)CC(=O)OC[C@H]1O[C@@](C#N)(c2ccc3c(NC(=O)[C@@H](N)Cc4ccc(F)cc4)ncnn23)[C@H](O)[C@@H]1O [Compound 101, ((2R,3S,4R,5R)-5-(4-((S)-2-amino-3-(4-fluorophenyl)propanamido)pyrrolo[2,1-f][1,2,4]triazin-7-yl)-5-cyano-3,4-dihydroxytetrahydrofuran-2-yl)methyl 3-methylbutanoate] |  |  |  | 0.07 | 13 | 175 |
| CC(C)[C@H](N)C(=O)OC[C@H]1O[C@@](C#N)(c2ccc3c(NC(=O)c4ccccc4)ncnn23)[C@H](O)[C@@H]1O [Compound 102, ((2R,3S,4R,5R)-5-(4-benzamidopyrrolo[2,1-f][1,2,4]triazin-7-yl)-5-cyano-3,4-dihydroxytetrahydrofuran-2-yl)methyl L-valinate] |  |  |  | 0.02 | 6.7 | 280 |
| CC(=O)OC[C@H]1O[C@@](C#N)(c2ccc3c(NC(=O)c4ccccc4)ncnn23)[C@H](O)[C@@H]1O [Compound 103, ((2R,3S,4R,5R)-5-(4-benzamidopyrrolo[2,1-f][1,2,4]triazin-7-yl)-5-cyano-3,4-dihydroxytetrahydrofuran-2-yl)methyl acetate] |  |  |  | 1.5 | 12 | 8 |
| N#C[C@@]1(c2ccc3c(NC(=O)c4ccccc4)ncnn23)O[C@H](COC(=O)Cc2ccccc2)[C@@H](O)[C@H]1O [Compound 105, ((2R,3S,4R,5R)-5-(4-benzamidopyrrolo[2,1-f][1,2,4]triazin-7-yl)-5-cyano-3,4-dihydroxytetrahydrofuran-2-yl)methyl 2-phenylacetate] | 0.77 | 1.4 | 1.8 |  |  |  |
| CCC(=O)OC[C@H]1O[C@@](C#N)(c2ccc3c(NC(=O)c4ccccc4)ncnn23)[C@H](O)[C@@H]1O [Compound 107, ((2R,3S,4R,5R)-5-(4-benzamidopyrrolo[2,1-f][1,2,4]triazin-7-yl)-5-cyano-3,4-dihydroxytetrahydrofuran-2-yl)methyl propionate] | 2.1 | 7.5 | 3.6 |  |  |  |
| CC(C)C(=O)OC[C@H]1O[C@@](C#N)(c2ccc3c(NC(=O)c4ccccc4)ncnn23)[C@H](O)[C@@H]1O [Compound 108, ((2R,3S,4R,5R)-5-(4-benzamidopyrrolo[2,1-f][1,2,4]triazin-7-yl)-5-cyano-3,4-dihydroxytetrahydrofuran-2-yl)methyl isobutyrate] |  |  |  | 1.5 | 2 | 1.4 |
| CC(C)CC(=O)OC[C@H]1O[C@@](C#N)(c2ccc3c(NC(=O)c4ccccc4)ncnn23)[C@H](O)[C@@H]1O [Compound 109] |  |  |  | 1.4 | 1.3 | 0.9 |
| CC(C)[C@H](N)C(=O)Nc1ncnn2c([C@]3(C#N)O[C@H](COC(=O)[C@@H](N)C(C)C)[C@@H](O)[C@H]3O)ccc12 [Compound 110, ((2R,3S,4R,5R)-5-(4-((S)-2-amino-3-methylbutanamido)pyrrolo[2,1-f][1,2,4]triazin-7-yl)-5-cyano-3,4-dihydroxytetrahydrofuran-2-yl)methyl L-valinate] |  |  |  | 0.02 | 0.33 | 15 |
| CC(C)[C@H](N)C(=O)Nc1ncnn2c([C@]3(C#N)O[C@H](COC(=O)CC4CCCCC4)[C@@H](O)[C@H]3O)ccc12 [Compound 112, [(2R,3S,4R,5R)-5-{4-[(2S)-2-amino-3-methylbutanamido]pyrrolo[2,1-f][1,2,4]triazin-7-yl}-5-cyano-3,4-dihydroxyoxolan-2-yl]methyl 2-cyclohexylacetate] |  |  |  | 0.14 | 6.1 | 44 |
| CC(C)[C@H](N)C(=O)Nc1ncnn2c([C@]3(C#N)O[C@H](COC(=O)Cc4ccccc4)[C@@H](O)[C@H]3O)ccc12 [Compound 113] | 0.01 | 4.8 | 320 |  |  |  |
| CCC(=O)OC[C@H]1O[C@@](C#N)(c2ccc3c(NC(=O)[C@@H](N)C(C)C)ncnn23)[C@H](O)[C@@H]1O [Compound 115, ((2R,3S,4R,5R)-5-(4-((S)-2-amino-3-methylbutanamido)pyrrolo[2,1-f][1,2,4]triazin-7-yl)-5-cyano-3,4-dihydroxytetrahydrofuran-2-yl)methyl propionate] |  |  |  | 0.04 | 1.7 | 47 |
| CC(C)C(=O)OC[C@H]1O[C@@](C#N)(c2ccc3c(NC(=O)[C@@H](N)C(C)C)ncnn23)[C@H](O)[C@@H]1O [Compound 116, [(2R,3S,4R,5R)-5-{4-[(2S)-2-amino-3-methylbutanamido]pyrrolo[2,1-f][1,2,4]triazin-7-yl}-5-cyano-3,4-dihydroxyoxolan-2-yl]methyl 2-methylpropanoate] |  |  |  | 0.15 | 1.2 | 7.9 |
| CC(C)CC(=O)OC[C@H]1O[C@@](C#N)(c2ccc3c(NC(=O)[C@@H](N)C(C)C)ncnn23)[C@H](O)[C@@H]1O [Compound 117, [(2R,3S,4R,5R)-5-{4-[(2S)-2-amino-3-methylbutanamido]pyrrolo[2,1-f][1,2,4]triazin-7-yl}-5-cyano-3,4-dihydroxyoxolan-2-yl]methyl 3-methylbutanoate] |  |  |  | 0.22 | 3.3 | 15 |
| CC(C)[C@H](N)C(=O)O[C@H]1[C@@H](O)[C@](C#N)(c2ccc3c(NC(=O)c4ccccc4)ncnn23)O[C@@H]1CO [Compound 128, (2R,3S,4R,5R)-5-(4-benzamidopyrrolo[2,1-f][1,2,4]triazin-7-yl)-5-cyano-4-hydroxy-2-(hydroxymethyl)tetrahydrofuran-3-yl L-valinate] |  |  |  | 0.3 | 6.4 | 22 |
